{"source": "patent US20230146870A1", "about": "“METHOD TO QUANTIFY AFFINITY AND SELECTIVITY OF SMALL MOLECULES FOR PROTEINS IN LIVING CELLS” (Ohio State Innovation Foundation, priority 2021, published 2023)", "key": {"C1A-C1A-EYFP (PKCγ)": {"target": "T1, C1A-C1A-EYFP (PKCγ) (UniProt P63319)", "T1 construct": "apparent Kd; other: verapamil 100 μM, 90 min, 37° C., DMEM high glucose, 4% FBS; half time (t1/2) of cellular fluorescence; other: 33 at 5 μM, verapamil 100 μM, room temperature; fused on or other part: EYFP at the C-terminus; the C1A module is present twice in one chain", "test": "Cellular binding by flow cytometry, HEK293 cells expressing C1A-C1A-EYFP (PKCγ)", "settings": "verapamil 100 μM", "text": "The dissociation constant can be defined as the ratio of koff divided by kon. This value is also the concentration where the ligand occupies 50% of the receptor.^94 Kd is only meaningful when equilibrium is reached, where the ligand-receptor complex is formed at the same rate as it dissociates into free ligand and receptor (FIG. 15). This binding equilibrium is established when essentially no further change in the amount of bound complex is observed over time. To evaluate the time needed for equilibration, we treated HEK293 cells that overexpress C1A-C1A-EYFP (PKCγ) with 33 (0 and 5 μM) in the presence or absence of verapamil (100 μM) and cellular fluorescence was measured by flow cytometry as a function of time (FIG. 18A). […] This optimization was used to establish a 90 min equilibration period for further assay optimization.\nThe presence of fetal bovine serum (FBS) in the culture media also influenced the binding by sequestering the free ligand. The assay conditions were finalized using HEK293 cells incubated with the probe in the presence of verapamil for 90 min at 37° C. in DMEM media (high glucose, 4% FBS)."}, "HEK293 cells": {"test_system": "HEK293 cells", "test": "Viability of HEK293 cells during probe treatment by flow cytometry", "assay_type": "cell-based", "settings": "33 at 1 μM, verapamil 0, 25 or 100 μM, 1 h", "protocol": "FIGS. 14A and 14B show quantification of fluorescence (FIG. 14A) and viability (FIG. 14B) upon treatment of HEK293 cells with compound 33 (1 μM) and verapamil (0, 25 or 100 μM) for 1 h. Total [DMSO]=0.2%. Error bars represent SD (N=3). Statistical significance analyzed by one-way ANOVA (GraphPad Prism 9). **, P<0.01; ****, P<0.0001. Samples were analyzed with a Beckman Coulter Cytoflex flow cytometer. (Ex. 405 nm/Em. […]). […] Compound 33 is non-toxic under these conditions.\nFIGS. 16A-16D show quantification of non-specific binding and cell viability after treatment for 1 h at 37° C. with compound 33 (2-fold serial dilution from 5 μM) and verapamil (75 μM) in the presence of different competitors (PMA or non-fluorescent PB-carbamate 8, at 0, 5 and 10 μM). Total [DMSO]=0.3%. (FIG. 16A) Parental HEK293 cells analyzed after treatment with 33 in the presence or absence of PMA or compound 8. […] Samples were analyzed with a Beckman Coulter Cytoflex flow cytometer and gated to analyze living cells (Ex. 405 nm; Em. 450/45 nm).\nThe efflux of this fluorescent probe was next studied by flow cytometry. […] The blue fluorescent signal (405 nm laser) of HEK293 cells overexpressing green fluorescent full-length PKCγ-EGFP was elucidated (the median protein concentration was determined to be ˜5.0 μM as measured by flow cytometry by comparison with Spherotech rainbow bead standards as described herein). […]"}, "mouse PKCβI-mVenus": {"target": "T2, mouse PKCβI-mVenus (Mus musculus, UniProt P68404)", "T2 construct": "eight plasmids encoding full length mouse PKC isozymes fused to; expressed in transfected cells; host or cells: HEK293", "T2 sequence (P68404 whole entry, the tested form may be a part)": "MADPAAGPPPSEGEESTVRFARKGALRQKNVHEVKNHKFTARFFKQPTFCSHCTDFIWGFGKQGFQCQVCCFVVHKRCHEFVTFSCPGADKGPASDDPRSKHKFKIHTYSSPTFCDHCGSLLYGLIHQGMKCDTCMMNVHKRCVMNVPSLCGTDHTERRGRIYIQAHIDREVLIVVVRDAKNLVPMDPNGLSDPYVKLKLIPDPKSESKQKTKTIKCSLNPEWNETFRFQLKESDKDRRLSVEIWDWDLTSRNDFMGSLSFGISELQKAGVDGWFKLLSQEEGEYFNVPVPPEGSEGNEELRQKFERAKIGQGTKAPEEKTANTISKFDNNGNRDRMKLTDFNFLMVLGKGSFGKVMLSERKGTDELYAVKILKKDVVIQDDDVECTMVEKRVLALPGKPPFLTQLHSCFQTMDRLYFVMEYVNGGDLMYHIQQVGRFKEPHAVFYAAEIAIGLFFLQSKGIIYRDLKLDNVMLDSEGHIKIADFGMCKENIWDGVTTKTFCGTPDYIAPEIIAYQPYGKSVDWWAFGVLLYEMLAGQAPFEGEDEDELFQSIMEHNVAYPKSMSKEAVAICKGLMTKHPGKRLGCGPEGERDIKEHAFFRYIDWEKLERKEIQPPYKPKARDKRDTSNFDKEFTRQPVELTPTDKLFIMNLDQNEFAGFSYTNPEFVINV", "test": "Apparent cellular Kd by flow cytometry, HEK293 cells overexpressing PKCβI-mVenus (Example 2)", "assay_type": "binding", "protocol": "The apparent Kd values of these fluorescent probes were measured using different PKC isozymes (e.g., PKCβI, FIGS. 20A-20D). HEK293 cells were transfected to overexpress PKCβ-mVenus and treated with probes in the presence of verapamil (100 μM) as an inhibitor of efflux."}, "rat EGFP-N2-PKCγ": {"target": "T3, rat EGFP-N2-PKCγ (Rattus norvegicus, UniProt P63319)", "T3 construct": "transiently transfected with DNA encoding the full-length rat PKCγ-EGFP; host or cells: HEK293", "test": "Confocal video microscopy of PKCγ trafficking in HEK293 cells", "assay_type": "cell-based", "settings": "33 at 1 μM, after 10 min", "text": "Blue fluorescence of 33 is shown in the right panels (Ex. 405 nm, Em. 410-495 nm, Gain 50), green fluorescence of transiently transfected EGFP-N2-PKCγ protein is shown in the middle panels (Ex. 488 nm, Em. 500-650 nm, Gain 700), and DIC images are shown in the left panels. Trafficking of PKCγ-mEGFP protein to membranes induced by 33 can be observed Images were acquired with a Leica SP8 microscope (63× objective). Scale bar=25 μm.\nIt appears that this is due to efflux of this compound from cells mediated by efflux transporters such as Pgp. To explore this idea, two-color confocal video microscopy was used. Briefly, HEK293 cells were transiently transfected with commercially available plasmid DNA encoding rat PKCγ fused to GFP (EGFP-N2-PKCγ, Addgene Plasmid #21204).^84 The HEK293 cell line is known to expresses multiple efflux transporters including Pgp (MDR1/ABCB1).^85 The fluorescence of GFP was monitored by excitation with a 488 nm laser and emission collected between 500-650 nm. […] In addition, the cell morphology was recorded using differential interference contrast microscopy (DIC). The localization of the fluorescent probe and the GFP fusion protein was recorded using video confocal microscopy immediately after treatment of transfected cells with 33. […]"}, "Jurkat cells": {"test_system": "Jurkat cells", "test": "Cellular viability assay, Jurkat lymphocytes, 48 h, flow cytometry (Example 2)", "assay_type": "cell-based", "settings": "Homo sapiens, Jurkat, read-out: toxicity towards Jurkat cells, IC50", "protocol": "The impact of membrane transporters on the toxicity profile of 49 was also studied.\nJurkat lymphocytes were seeded into a 96-well plate in fresh complete medium at 2.5×10^5 cells/mL and 200 μL per well. All compounds were serial diluted in DMSO and added to complete media to achieve a 1:1000 dilution factor (0.10% DMSO in each well). […] The total cell-count for each well was determined by flow cytometry and staining with propidium iodide was used to identify populations of live cells (only dead cells are stained by PI). Counts of viable cells for each treatment, determined in triplicate, were used to generate dose-response curves. These curves were fitted with non-linear regression using an inhibitor vs. response variable slope […] model (GraphPad Prism 9) to determine IC50 values."}, "[1]": {"target": "C1 domain of human PKD (purified C1AB domain) (Homo sapiens, UniProt Q15139)", "sequence (Q15139 whole entry, the tested form may be a part)": "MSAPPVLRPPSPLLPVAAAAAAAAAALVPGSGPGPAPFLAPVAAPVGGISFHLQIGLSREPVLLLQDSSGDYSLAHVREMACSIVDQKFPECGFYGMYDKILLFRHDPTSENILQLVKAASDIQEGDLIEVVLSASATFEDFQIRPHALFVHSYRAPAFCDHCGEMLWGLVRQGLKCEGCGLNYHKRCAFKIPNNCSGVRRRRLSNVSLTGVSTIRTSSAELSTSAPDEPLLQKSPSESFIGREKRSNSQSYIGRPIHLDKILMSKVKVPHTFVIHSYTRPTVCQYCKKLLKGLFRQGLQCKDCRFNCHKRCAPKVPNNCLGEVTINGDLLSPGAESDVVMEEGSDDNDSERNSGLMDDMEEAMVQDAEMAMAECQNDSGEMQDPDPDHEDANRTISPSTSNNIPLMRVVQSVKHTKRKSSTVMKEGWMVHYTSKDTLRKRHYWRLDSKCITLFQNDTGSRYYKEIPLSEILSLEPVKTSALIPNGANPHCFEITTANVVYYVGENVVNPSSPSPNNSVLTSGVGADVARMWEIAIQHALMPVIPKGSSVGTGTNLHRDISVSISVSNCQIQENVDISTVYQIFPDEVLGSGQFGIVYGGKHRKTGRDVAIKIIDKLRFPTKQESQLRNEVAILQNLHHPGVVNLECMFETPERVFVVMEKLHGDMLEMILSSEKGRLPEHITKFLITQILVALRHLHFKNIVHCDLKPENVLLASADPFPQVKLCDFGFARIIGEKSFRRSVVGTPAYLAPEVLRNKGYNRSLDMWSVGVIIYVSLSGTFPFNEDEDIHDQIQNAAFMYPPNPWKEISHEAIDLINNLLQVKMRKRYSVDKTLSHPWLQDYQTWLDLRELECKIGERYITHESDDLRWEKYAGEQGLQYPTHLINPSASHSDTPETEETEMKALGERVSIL", "test": "[3H]PDBu competition assay with purified C1AB domain of PKD", "assay_type": "binding", "protocol": "Affinities were measured with a radioactive […]\nThe results of the biochemical binding assays with cellular binding assays were used to quantitatively investigate differences between conventional biochemical measurements of Ki values with this novel method for determination of Ki values in cellule."}, "mouse PKCγ-mVenus": {"target": "mouse PKCγ-mVenus (Mus musculus, UniProt P63318)", "test": "Apparent cellular Kd by flow cytometry, HEK293 cells overexpressing PKCγ-mVenus (Example 2)", "settings": "90 min"}, "[2]": {"target": "full-length rat PKCγ-EGFP (Rattus norvegicus, UniProt P63319)", "test": "Cellular binding by flow cytometry, HEK293 cells expressing full-length PKCγ-EGFP", "settings": "verapamil 100 μM"}, "mouse PKCα-mVenus": {"target": "mouse PKCα-mVenus (Mus musculus, UniProt P20444)", "test": "Apparent cellular Kd by flow cytometry, HEK293 cells overexpressing PKCα-mVenus (Example 2)", "settings": "90 min"}}, "note": "Entries after “also recorded” stand apart in the source; their conditions may differ. Like-named read-outs stand apart in the source and are kept apart here."}
{"smiles": "CC1=C[C@H]2[C@@]3(O)[C@H](C)[C@@H](O)[C@]4(OC(=O)N(C)CCCCCCCCCCCCN(C)C(=O)c5cc6cc(F)c(O)c(F)c6oc5=O)[C@H]([C@@H]3C=C(CO)C[C@]2(O)C1=O)C4(C)C", "note": "[probe 33, (1aR,1bS,4aR,7aS,7bS,8R,9R,9aS)-4a,7b,9-trihydroxy-3-(hydroxymethyl)-1,1,6,8-tetramethyl-5-oxo-1,1a,1b,4,4a,5,7a,7b,8,9-decahydro-9aH-cyclopropa[3,4]benzo[1,2-e]azulen-9a-yl (12-(6,8-difluoro-7-hydroxy-N-methyl-2-oxo-2H-chromene-3-carboxamido)dodecyl)(methyl)carbamate]", "values": [{"measurement": "half time (t1/2) of cellular fluorescence", "setting": "C1A-C1A-EYFP (PKCγ); 33 at 5 μM, room temperature", "value": "about 32 min"}, {"measurement": "Kd", "setting": "C1A-C1A-EYFP (PKCγ); 90 min, 37° C., DMEM high glucose, 4% FBS, read-out: apparent Kd", "value": 6.4, "unit": "µM"}, {"measurement": "toxicity to HEK293 cells", "setting": "HEK293 cells", "value": "non-toxic; also recorded: no toxicity"}, {"measurement": "Kd", "setting": "mouse PKCβI-mVenus", "value": 2700, "unit": "nM"}, {"measurement": "trafficking of PKCγ", "setting": "rat EGFP-N2-PKCγ", "value": "translocation of PKCγ to the plasma membrane"}, {"measurement": "IC50", "setting": "Jurkat cells", "value": "~12", "unit": "µM"}, {"measurement": "Ki", "setting": "[1]; Ki for purified C1AB domain of PKD", "value": 30, "unit": "nM"}, {"measurement": "Ki", "setting": "[1]; read-out: Ki for purified C1AB domain of PKD", "value": "~30", "unit": "nM"}]}
{"smiles": "CC1=C[C@H]2[C@@]3(O)[C@H](C)[C@@H](O)[C@]4(OC(=O)N(C)CCCCCCCCCCCCN(C)C(=O)c5cc6ccc(O)cc6oc5=O)[C@H]([C@@H]3C=C(CO)C[C@]2(O)C1=O)C4(C)C", "note": "[probe 34, (1aR,1bS,4aR,7aS,7bS,8R,9R,9aS)-4a,7b,9-trihydroxy-3-(hydroxymethyl)-1,1,6,8-tetramethyl-5-oxo-1,1a,1b,4,4a,5,7a,7b,8,9-decahydro-9aH-cyclopropa[3,4]benzo[1,2-e]azulen-9a-yl (12-(7-hydroxy-N-methyl-2-oxo-2H-chromene-3-carboxamido)dodecyl)(methyl)carbamate]", "values": [{"measurement": "specific binding to PKCγ-mVenus", "setting": "mouse PKCγ-mVenus", "value": "no specific binding"}, {"measurement": "specific binding to PKCβI-mVenus", "setting": "mouse PKCβI-mVenus; 90 min", "value": "not measurable"}, {"measurement": "total binding fluorescence vs non-specific binding", "setting": "[2]", "value": "identical or lower than the non-specific binding value"}, {"measurement": "specific binding to PKCα-mVenus", "setting": "mouse PKCα-mVenus", "value": "no specific binding"}]}
